Measured values: paper PMC9636582 (The Journal of Biological Chemistry, 2022)
“Also recorded” adds a separate entry of the source.

Tests used:
[1] = biological target: T1, recombinant human PPARδ LBD protein (Homo sapiens, UniProt Q03181); assay: [14C] DHA competitive ligand-binding assay; details: 100 nM [14C] DHA, 1 μM nonlabeled fatty acids, overnight at 4 °C
T1 construct: Human PPARδ LBD (140–442) construct was cloned into a pGEX-4T1 vector; GST (N, cleaved yes); made in house; host or cells: Escherichia coli BL21 (DE3) pLys
T1 sequence (Q03181 140-441 limits assumed): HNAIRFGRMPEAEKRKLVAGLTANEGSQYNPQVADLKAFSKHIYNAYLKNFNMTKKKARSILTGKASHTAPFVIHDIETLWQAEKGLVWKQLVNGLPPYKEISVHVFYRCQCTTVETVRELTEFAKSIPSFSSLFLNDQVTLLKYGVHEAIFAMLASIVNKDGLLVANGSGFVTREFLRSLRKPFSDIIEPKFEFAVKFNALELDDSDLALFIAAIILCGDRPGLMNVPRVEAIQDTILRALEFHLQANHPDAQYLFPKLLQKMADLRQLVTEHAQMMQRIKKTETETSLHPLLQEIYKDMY
Description: To identify the mechanism underlying the activation of PPARδ by GLA-derived fatty acids, we performed a [^14C] DHA competitive ligand-binding assay describing the displacement of ligands from receptors with recombinant human PPARδ LBD protein produced by a bacterial expression system (Figs. 4, A and B and S2). PPARδ LBD or glutathione-S-transferase (GST) recombinant protein was incubated with both [^14C] […] A competitive inhibition of [^14C] DHA binding was analyzed as a direct binding to PPARδ LBD (see Experimental procedures). […] DHA binding to PPARδ LBD competitively (Fig. 4C).
Human PPARδ LBD (140–442) construct was cloned into a pGEX-4T1 vector (GE Healthcare Life Sciences) at the restriction enzyme site of SmaI and XhoI. The protein was expressed in Eschericia coli BL21 (DE3) pLys cells (Novagen) as a C-terminal fusion to a GST tag with a thrombin cleavage site. A single colony was cultured in 2 ml of LB media supplemented with 20 μg/ml of ampicillin and 30 μg/ml of chloramphenicol at 37 °C and 200 rpm for 18 h. The preculture was then transferred to 1 l of LB media until the A600 reached 0.6 to 0.8. IPTG was added to produce a final concentration of 0.4 mM, and expression was continued at 24 °C and 150 rpm for 18 h. Cells were collected using centrifugation, and pellets were resuspended in lysis buffer comprising 50 mM Tris–HCl (pH 7.5), 150 mM NaCl, 5 mM DTT, 1 mM EDTA, and 10% glycerol before sonication was performed. The supernatant was then collected using centrifugation at 100,000g and 4 °C for 70 min, after which it was loaded onto GST Accept (nacalai tesque) and equilibrated using the lysis buffer. Subsequently, the column was washed using five column volumes of the lysis buffer and thrombin cleavage buffer comprising 20 mM Tri–HCl (pH 8.4), 150 mM NaCl, 2.5 mM CaCl2, and 1 mM DTT, respectively. The GST tag was removed via digestion using biotinylated thrombin (Merck) for 18 h at 4 °C. The biotinylated thrombin was removed using Dynabeads M-280 streptavidin (Veritas). The purity of the target proteins was verified using SDS-PAGE.
A ligand-binding assay was performed as described previously with minor modifications ([72]). Briefly, purified recombinant human PPARδ LBD protein was incubated with 100 nM ([…]) [^14C] DHA in GP buffer (137 mM NaCl, 8.1 mM Na2HPO4, 2.68 mM KCl, 1.47 mM KH2PO4, 1% sodium azide, and 0.1% gelatin) overnight at 4 °C with or without various competitors (1 μM), including DHA and GLA-derived fatty acids. Unbound ligands were removed by adsorption to 3% dextran-coated charcoal, and the supernatant was collected. The PPARδ-bound [^14C] DHA was measured using a scintillation counter (PerkinElmer).

[2] = tested on: human intestinal organoids; assay: intracellular triglyceride in human intestinal organoids; format: cell-based; details: organoids pretreated with 500 μM oleic acid 48 h, then 1 μM GW1516 or 30 μM fatty acids 24 h
[3] = tested on: human intestinal organoids; assay: fatty acid β-oxidation activity in living organoids (FAOBlue); format: cell-based; details: organoids pretreated with 500 μM oleic acid 48 h, then 1 μM GW1516 or 30 μM fatty acids 24 h
[4] = biological target: T2, GAL4-PPARδ LBD (Homo sapiens, UniProt Q03181); assay: GAL4-PPARδ LBD luciferase reporter assay in HEK293 cells; format: cell-based; details: for EC50: GAL4-PPARδ LBD, calculated from luciferase activity with Quest Graph EC50 Calculator; for PPARδ activation compared with dietary PUFAs (in words): 30 μM fatty acids, Fig. 2A; for PPARδ activation (in words): 100 μM fatty acids, Fig. 1B
T2 construct: chimeric receptors containing the LBD of various NRs; expressed in transfected cells; host or cells: HEK293
T2 sequence (Q03181 211-439 limits assumed): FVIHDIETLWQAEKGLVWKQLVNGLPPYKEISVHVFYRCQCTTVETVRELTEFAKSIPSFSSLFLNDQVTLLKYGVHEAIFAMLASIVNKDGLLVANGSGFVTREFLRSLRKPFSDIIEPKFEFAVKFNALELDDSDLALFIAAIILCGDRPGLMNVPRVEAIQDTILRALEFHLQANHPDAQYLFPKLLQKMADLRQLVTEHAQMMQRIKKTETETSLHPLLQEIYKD

[5] = biological target: T3, VP16-PPARδ / GAL4-SRC-1 (Homo sapiens, UniProt Q03181); assay: mammalian two-hybrid assay, VP16-PPARδ and coactivator GAL4-SRC-1; format: cell-based; details: 30 μM fatty acids, 100 nM GW1516, HEK293 cells, Fig. 3A
T3 construct: expressed in transfected cells; host or cells: HEK293
T3 sequence (Q03181 1-441): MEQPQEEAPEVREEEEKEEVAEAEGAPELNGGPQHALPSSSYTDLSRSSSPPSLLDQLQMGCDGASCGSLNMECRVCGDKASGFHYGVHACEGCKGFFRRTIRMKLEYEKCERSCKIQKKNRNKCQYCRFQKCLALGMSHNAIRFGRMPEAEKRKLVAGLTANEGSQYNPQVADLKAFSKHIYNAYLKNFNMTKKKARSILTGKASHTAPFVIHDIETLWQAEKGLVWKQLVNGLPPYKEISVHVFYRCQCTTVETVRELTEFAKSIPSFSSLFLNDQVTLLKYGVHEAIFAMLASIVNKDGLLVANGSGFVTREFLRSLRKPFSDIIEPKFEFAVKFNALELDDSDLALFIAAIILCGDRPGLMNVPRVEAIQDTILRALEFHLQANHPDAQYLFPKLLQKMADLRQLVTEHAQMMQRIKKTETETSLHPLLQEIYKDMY
T3 sequence (Q15788 595-771 partner limits assumed): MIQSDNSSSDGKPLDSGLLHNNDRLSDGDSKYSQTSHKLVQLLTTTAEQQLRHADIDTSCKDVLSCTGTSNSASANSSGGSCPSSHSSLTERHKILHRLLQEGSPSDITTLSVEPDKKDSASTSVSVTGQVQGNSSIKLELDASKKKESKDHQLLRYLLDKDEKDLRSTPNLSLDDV

Row | EC50 [4] [µM] | recruitment of coactivator SRC-1 to PPARδ [5] | SMILES | competitive displacement of [14C] DHA binding to PPARδ LBD [1] | intracellular triglyceride levels [2] | fatty acid β-oxidation activity [3] | PPARδ activation compared with dietary PUFAs (in words) [4] | PPARδ activation (in words) [4]
1 | 509 | not | CCCCC/C=C\C/C=C\C/C=C\CCCCC(=O)O [GLA, γ-linolenic acid, reference compound] | only weak competition | not | not |  | 
2 | 10.6 | induced coactivator-recruitment | CCCCCC(O)CCC=CCC=CCCCCC(=O)O (stereo not drawn) [γHYD, 13-hydroxy-cis-6,cis-9-octadecadienoic acid] | displaced [^14C] DHA binding to PPARδ LBD competitively; also recorded: comparable ligand-binding abilities to that of the C22 fatty acid DHA | reduced intracellular triglyceride accumulation | enhanced fatty acid β-oxidation | activated PPARδ more robustly than DHA and eicosapentaenoic acid as well as GLA | more robust PPARδ activation than their original compound, GLA
3 | 20.3 | induced coactivator-recruitment | CCCCCC(=O)CCC=CCC=CCCCCC(=O)O [γKetoD, 13-oxo-cis-6,cis-9-octadecadienoic acid] | displaced [^14C] DHA binding to PPARδ LBD competitively; also recorded: comparable ligand-binding abilities to that of the C22 fatty acid DHA | reduced intracellular triglyceride accumulation | enhanced fatty acid β-oxidation | activated PPARδ more robustly than DHA and eicosapentaenoic acid as well as GLA | more robust PPARδ activation than their original compound, GLA
